# In the supplement of paper PMC8671470:
# ± gives the standard deviation of the averaged measurements.
# Experiments:
# Details in all cases: 72 h
# [1] = system: KG-1
# In short: (§1)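 Fifteen myeloid leukaemia lines were incubated for 72 h at 37 °C with 5% CO2 across five tenfold doses from 1 to 10,000 nM, in duplicate. ATP luminescence was normalised to vehicle and to a positive control at 10 µM and fitted with a four-parameter log-logistic model. The IC50 came from these dose–response fits.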
# [2] = system: THP-1
# In short: as §1
# [3] = system: BV-173
# In short: as §1
# [4] = system: NOMO-1
# In short: as §1
# [5] = system: K-562
# In short: as §1
# [6] = system: MV4-11
# In short: as §1
# [7] = system: MOLM-13
# In short: as §1
# [8] = system: SHI-1
# In short: as §1
# [9] = system: HL-60
# In short: as §1
# [10] = system: KU-812
# In short: as §1
# [11] = system: LAMA-84
# In short: as §1
# [12] = system: Mono-Mac-6
# In short: as §1
# [13] = system: KCL-22
# In short: as §1
# [14] = system: ML-2
# In short: as §1
# [15] = system: HEL
# In short: as §1
# [16] = system: KG-1; test: cell viability (% survival relative to DMSO control, bortezomib = 0%); higher = less cytotoxic
# In short: (§2)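 In 384-well plates pre-printed with compounds at 1, 10, 100, 1000 or 10000 nM, duplicate wells received cells from 10 AML and 5 CML lines at densities within the linear growth range. The plates stayed at 37 °C with 5% CO2 for 72 h before CellTiter-Glo luminescence was recorded. Each entry is averaged percent survival. Scaling placed vehicle at 100% and a 10 µM positive control at 0%.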
# [17] = system: THP-1; test: as above
# In short: as §2
# [18] = system: BV-173; test: as above
# In short: as §2
# [19] = system: NOMO-1; test: as above
# In short: as §2
# [20] = system: K-562; test: as above
# In short: as §2
# [21] = system: MV4-11; test: as above
# In short: as §2
# [22] = system: MOLM-13; test: as above
# In short: as §2
# [23] = system: SHI-1; test: as above
# In short: as §2
# [24] = system: HL-60; test: as above
# In short: as §2
# [25] = system: KU-812; test: as above
# In short: as §2
# [26] = system: LAMA-84; test: as above
# In short: as §2
# [27] = system: Mono-Mac-6; test: as above
# In short: as §2
# [28] = system: KCL-22; test: as above
# In short: as §2
# [29] = system: ML-2; test: as above
# In short: as §2
# [30] = system: HEL; test: as above
# In short: as §2
# [31] = system: HL-60; test: cell viability (% survival relative to DMSO control); higher = less cytotoxic
# In short: (§3)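 For each screen, HL-60 cells in RPMI 1640 with 10% FBS carried either DMSO or 100 nM of one of three metabolic inhibitors while the full library was applied at five tenfold concentrations, 1–10,000 nM, in duplicate. Plates were 384-well and were kept 72 h at 37 °C, 5% CO2. Viability, measured by CellTiter-Glo, was normalised to wells with DMSO and with 10 μM proteasome inhibitor. Where area under the curve appears, it was fitted by four-parameter log-logistic models in drc and PharmacoGx.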
# [32] = system: HL-60; test: area under dose-response curve (viability, 1 nM-10 uM) (fraction (0-1)); higher = more sensitive
# In short: as §3
structure (smiles),measurement,setting,value
CN(C/C=C/C#CC(C)(C)C)Cc1cccc2ccccc12 [Terbinafine],IC50 (cell viability),[1],> 10 µM
same,IC50 (cell viability),[2],> 10 µM
same,IC50 (cell viability),[3],> 10 µM
same,IC50 (cell viability),[4],> 10 µM
same,IC50 (cell viability),[5],> 10 µM
same,IC50 (cell viability),[6],> 10 µM
same,IC50 (cell viability),[7],> 10 µM
same,IC50 (cell viability),[8],> 10 µM
same,IC50 (cell viability),[9],> 10 µM
same,IC50 (cell viability),[10],> 10 µM
same,IC50 (cell viability),[11],> 10 µM
same,IC50 (cell viability),[12],> 10 µM
same,IC50 (cell viability),[13],> 10 µM
same,IC50 (cell viability),[14],> 10 µM
same,IC50 (cell viability),[15],> 10 µM
same,cell viability,[16]; 1 nM,94.1%
same,cell viability,[16]; 10 nM,106%
same,cell viability,[16]; 100 nM,90.9%
same,cell viability,[16]; 1000 nM,95.5%
same,cell viability,[16]; 10000 nM,92.6%
same,cell viability,[17]; 1 nM,102%
same,cell viability,[17]; 10 nM,94.6%
same,cell viability,[17]; 100 nM,92%
same,cell viability,[17]; 1000 nM,100%
same,cell viability,[17]; 10000 nM,94.4%
same,cell viability,[18]; 1 nM,113%
same,cell viability,[18]; 10 nM,92%
same,cell viability,[18]; 100 nM,93.3%
same,cell viability,[18]; 1000 nM,96.1%
same,cell viability,[18]; 10000 nM,85.3%
same,cell viability,[19]; 1 nM,99.3%
same,cell viability,[19]; 10 nM,101%
same,cell viability,[19]; 100 nM,96.7%
same,cell viability,[19]; 1000 nM,103%
same,cell viability,[19]; 10000 nM,96.9%
same,cell viability,[20]; 1 nM,97.8%
same,cell viability,[20]; 10 nM,98%
same,cell viability,[20]; 100 nM,106%
same,cell viability,[20]; 1000 nM,86.1%
same,cell viability,[20]; 10000 nM,88.8%
same,cell viability,[21]; 1 nM,93.7%
same,cell viability,[21]; 10 nM,92.8%
same,cell viability,[21]; 100 nM,102%
same,cell viability,[21]; 1000 nM,111%
same,cell viability,[21]; 10000 nM,109%
same,cell viability,[22]; 1 nM,105%
same,cell viability,[22]; 10 nM,98.5%
same,cell viability,[22]; 100 nM,133%
same,cell viability,[22]; 1000 nM,90.2%
same,cell viability,[22]; 10000 nM,113%
same,cell viability,[23]; 1 nM,99.4%
same,cell viability,[23]; 10 nM,101%
same,cell viability,[23]; 100 nM,108%
same,cell viability,[23]; 1000 nM,99.5%
same,cell viability,[23]; 10000 nM,98.9%
same,cell viability,[24]; 1 nM,104%
same,cell viability,[24]; 10 nM,107%
same,cell viability,[24]; 100 nM,118%
same,cell viability,[24]; 1000 nM,105%
same,cell viability,[24]; 10000 nM,93.8%
same,cell viability,[25]; 1 nM,107%
same,cell viability,[25]; 10 nM,95.3%
same,cell viability,[25]; 100 nM,120%
same,cell viability,[25]; 1000 nM,94.8%
same,cell viability,[25]; 10000 nM,92.9%
same,cell viability,[26]; 1 nM,104%
same,cell viability,[26]; 10 nM,97.7%
same,cell viability,[26]; 100 nM,110%
same,cell viability,[26]; 1000 nM,101%
same,cell viability,[26]; 10000 nM,93.9%
same,cell viability,[27]; 1 nM,103%
same,cell viability,[27]; 10 nM,96.2%
same,cell viability,[27]; 100 nM,102%
same,cell viability,[27]; 1000 nM,98.7%
same,cell viability,[27]; 10000 nM,91.2%
same,cell viability,[28]; 1 nM,101%
same,cell viability,[28]; 10 nM,96.2%
same,cell viability,[28]; 100 nM,101%
same,cell viability,[28]; 1000 nM,104%
same,cell viability,[28]; 10000 nM,93.2%
same,cell viability,[29]; 1 nM,102%
same,cell viability,[29]; 10 nM,101%
same,cell viability,[29]; 100 nM,92.2%
same,cell viability,[29]; 1000 nM,108%
same,cell viability,[29]; 10000 nM,90.3%
same,cell viability,[30]; 1 nM,101%
same,cell viability,[30]; 10 nM,91.1%
same,cell viability,[30]; 100 nM,110%
same,cell viability,[30]; 1000 nM,96.8%
same,cell viability,[30]; 10000 nM,96.6%
Clc1ccccc1CN1CCc2sccc2C1 [Ticlopidine],IC50 (cell viability),[1],> 10 µM
same,IC50 (cell viability),[2],> 10 µM
same,IC50 (cell viability),[3],> 10 µM
same,IC50 (cell viability),[4],> 10 µM
same,IC50 (cell viability),[5],> 10 µM
same,IC50 (cell viability),[6],> 10 µM
same,IC50 (cell viability),[7],> 10 µM
same,IC50 (cell viability),[8],> 10 µM
same,IC50 (cell viability),[9],> 10 µM
same,IC50 (cell viability),[10],> 10 µM
same,IC50 (cell viability),[11],> 10 µM
same,IC50 (cell viability),[12],> 10 µM
same,IC50 (cell viability),[13],> 10 µM
same,IC50 (cell viability),[14],> 10 µM
same,IC50 (cell viability),[15],> 10 µM
CC(C(=O)O)C(=O)O [methylmalonate],cell viability,"[31]; 0.001 µM, co-treatment: AZD3965 100 nM",100 ± 1.6%
same,cell viability,"[31]; 0.001 µM, co-treatment: DMSO vehicle",97.43 ± 0.96%
same,cell viability,"[31]; 0.001 µM, co-treatment: GSK2194069 100 nM",101 ± 5.3%
same,cell viability,"[31]; 0.001 µM, co-treatment: pictilisib 100 nM",105 ± 14%
same,cell viability,"[31]; 0.01 µM, co-treatment: AZD3965 100 nM",96.1 ± 3%
same,cell viability,"[31]; 0.01 µM, co-treatment: DMSO vehicle",99.6 ± 0.36%
same,cell viability,"[31]; 0.01 µM, co-treatment: GSK2194069 100 nM",97.9 ± 8.9%
same,cell viability,"[31]; 0.01 µM, co-treatment: pictilisib 100 nM",103 ± 6.5%
same,cell viability,"[31]; 0.1 µM, co-treatment: AZD3965 100 nM",81.8 ± 19%
same,cell viability,"[31]; 0.1 µM, co-treatment: DMSO vehicle",96.753 ± 0.087%
same,cell viability,"[31]; 0.1 µM, co-treatment: GSK2194069 100 nM",95.2 ± 10%
same,cell viability,"[31]; 0.1 µM, co-treatment: pictilisib 100 nM",87.7 ± 20%
same,cell viability,"[31]; 1 µM, co-treatment: AZD3965 100 nM",107 ± 12%
same,cell viability,"[31]; 1 µM, co-treatment: DMSO vehicle",100.6 ± 0.51%
same,cell viability,"[31]; 1 µM, co-treatment: GSK2194069 100 nM",106 ± 2.2%
same,cell viability,"[31]; 1 µM, co-treatment: pictilisib 100 nM",84.2 ± 32%
same,cell viability,"[31]; 10 µM, co-treatment: AZD3965 100 nM",98.6 ± 5.8%
same,cell viability,"[31]; 10 µM, co-treatment: DMSO vehicle",99 ± 3.8%
same,cell viability,"[31]; 10 µM, co-treatment: GSK2194069 100 nM",103.3 ± 0.24%
same,cell viability,"[31]; 10 µM, co-treatment: pictilisib 100 nM",108.9 ± 0.38%
same,area under dose-response curve,[32]; co-treatment: AZD3965 100 nM,< 0.0301
same,area under dose-response curve,[32]; co-treatment: DMSO vehicle,< 0.0301
same,area under dose-response curve,[32]; co-treatment: GSK2194069 100 nM,< 0.0301
same,area under dose-response curve,[32]; co-treatment: pictilisib 100 nM,< 0.0301
